# Source: patent US4015974A, “Amido phosphorothiolates” (priority 1972, dated 1977)
# Experiments:
# Type in all cases: in vivo
# [1] = tested on: redroot pigweed (Amaranthus retroflexus); experiment: Pre-emergence application, herbicidal effect on redroot pigweed (Table 1); set-up: key: 0: not damaged; 5: completely killed; conditions: 20 days after application, score 0-5
# Description: (§1) Seeds of barnyard grass (Echinochloa crus-galli) and large crabgrass (Digitaria sanguinalis) as representatives of grassy weeds and those of radish, redroot pigweed (Amaranthus retroflexus), common purslane (Portulaca oleracea) and common lambsquarter (Chenopodium album) as representatives of broad-leaved weeds were individually sowed in flower pots of about 10 cm. in diameter. After covering the seeds with soil, test compounds as shown in Table 1 were individually applied to the soil treatment. Thereafter the plants were grown in a green house and 20 days after application the herbicidal effects of the compounds were observed, the results of which are as shown in Table 1.
# (§2) Herbicidal effects were evaluated by the numerals ranging from 0 (not damaged) to 5 (completely killed). All the test compounds were used in the form of wettable powder and diluted with water before application.
# [2] = tested on: broad-leaved weeds, e.g., monochoria, false pimpernel and toothcup; experiment: Water application, herbicidal effect on broad-leaved weeds (Table 2); set-up: key: 0: not damaged; 5: completely killed; conditions: 25 days, score 0-5
# Description: (§3) Wagner pots of 14 cm. in diameter, which had been packed with 1.5 kg. of paddy field soil, were brought into the state of paddy fields. To the pots were transplanted rice seedlings at the 3-leave stage. Further, seeds of barnyard grass (Echinochloa crus-galli) were sowed in the pots and required amounts of test compounds were applied to the soil under water lodged condition. 25 days after application, the degrees of herbicidal activity and phytotoxity were investigated on above-mentioned plants which had been transplanted and sowed, and on broad-leaved weeds, e.g., monochoria (Monochoria viaginalis Presl.), false pimpernel (Linderna pyxidaria) and toothcup (Rotala indica Koehue), which had been spontaneously germinated. The test compounds were used in the form of wettable powder. The herbicidal effects and the phytotoxity were evaluated as follows by the numerals ranging from 0 to 5.
# [3] = tested on: barnyard grass (Echinochloa crus-galli); experiment: Water application, herbicidal effect on barnyard grass (Table 2); set-up: key: 0: not damaged; 5: completely killed; conditions: 25 days, score 0-5
# Description: as §3
# [4] = tested on: barnyard grass (Echinochloa crus-galli); experiment: Pre-emergence application, herbicidal effect on barnyard grass (Table 1); set-up: key: 0: not damaged; 5: completely killed; conditions: 20 days after application, score 0-5
# Description: as §1, §2
# radish = experiment: Pre-emergence application, herbicidal effect on radish (Table 1); set-up: key: 0: not damaged; 5: completely killed; conditions: 20 days after application, score 0-5
# Description: as §1, §2
# [5] = tested on: large crabgrass (Digitaria sanguinalis); experiment: Pre-emergence application, herbicidal effect on large crabgrass (Table 1); set-up: key: 0: not damaged; 5: completely killed; conditions: 20 days after application, score 0-5
# Description: as §1, §2
# rice = experiment: Water application, phytotoxicity on rice (Table 2); set-up: key: 0: no effect; 1: very slightly affected; 2: slightly affected; 3: moderately affected; 4: considerably affected; 5: completely killed; conditions: 25 days, score 0-5
# Description: as §3
# [6] = tested on: common purslane (Portulaca oleracea); experiment: Pre-emergence application, herbicidal effect on common purslane (Table 1); set-up: key: 0: not damaged; 5: completely killed; conditions: 20 days after application, score 0-5
# Description: as §1, §2
# [7] = tested on: common lambsquarter (Chenopodium album); experiment: Pre-emergence application, herbicidal effect on common lambsquarter (Table 1); set-up: key: 0: not damaged; 5: completely killed; conditions: 20 days after application, score 0-5
# Description: as §1, §2
Compound,"Herbicidal effect, redroot pigweed ([1]; 10 g./a.)","Herbicidal effect, redroot pigweed ([1]; 20 g./a.)","Herbicidal effect, redroot pigweed ([1]; 40 g./a.)","Herbicidal effects, broad-leaved weeds ([2]; 10 g/a)","Herbicidal effects, broad-leaved weeds ([2]; 20 g/a)","Herbicidal effects, broad-leaved weeds ([2]; 40 g/a)","Herbicidal effects, barnyard grass ([3]; 10 g/a)","Herbicidal effects, barnyard grass ([3]; 20 g/a)","Herbicidal effects, barnyard grass ([3]; 40 g/a)","Herbicidal effect, barnyard grass ([4]; 10 g./a.)","Herbicidal effect, barnyard grass ([4]; 20 g./a.)","Herbicidal effect, barnyard grass ([4]; 40 g./a.)","Herbicidal effect, radish (radish; 10 g./a.)","Herbicidal effect, radish (radish; 20 g./a.)","Herbicidal effect, radish (radish; 40 g./a.)","Herbicidal effect, large crabgrass ([5]; 10 g./a.)","Herbicidal effect, large crabgrass ([5]; 20 g./a.)","Herbicidal effect, large crabgrass ([5]; 40 g./a.)",Phytotoxicity on rice (rice; 10 g/a),Phytotoxicity on rice (rice; 20 g/a),other results
CCOP(=O)(SCC)SCC(=O)N1CCC(C)CC1 (stereo not drawn) [Compound 100],4,4,5,5,5,5,5,5,5,4,5,5,0,0,1,5,5,5,0,0,"Phytotoxicity on rice (rice; 40 g/a): 0; Herbicidal effect, common purslane ([6]; 10 g./a.): 3; Herbicidal effect, common purslane ([6]; 20 g./a.): 4; Herbicidal effect, common purslane ([6]; 40 g./a.): 5; Herbicidal effect, common lambsquarter ([7]; 10 g./a.): 3; Herbicidal effect, common lambsquarter ([7]; 20 g./a.): 4; Herbicidal effect, common lambsquarter ([7]; 40 g./a.): 5"
CCCOP(=O)(SCCC(C)C)SCC(=O)N1CCCCC1C (stereo not drawn) [Compound 69],4,5,5,5,5,5,5,5,5,4,5,5,0,0,0,5,5,5,0,0,"Phytotoxicity on rice (rice; 40 g/a): 1; Herbicidal effect, common purslane ([6]; 10 g./a.): 4; Herbicidal effect, common purslane ([6]; 20 g./a.): 5; Herbicidal effect, common purslane ([6]; 40 g./a.): 5; Herbicidal effect, common lambsquarter ([7]; 10 g./a.): 4; Herbicidal effect, common lambsquarter ([7]; 20 g./a.): 5; Herbicidal effect, common lambsquarter ([7]; 40 g./a.): 5"
CCCCCSP(=O)(OCC)SCC(=O)N1CCCCC1CC (stereo not drawn) [Compound 78],4,4,5,5,5,5,5,5,5,5,5,5,0,0,0,5,5,5,0,0,"Phytotoxicity on rice (rice; 40 g/a): 0; Herbicidal effect, common purslane ([6]; 10 g./a.): 4; Herbicidal effect, common purslane ([6]; 20 g./a.): 4; Herbicidal effect, common purslane ([6]; 40 g./a.): 5; Herbicidal effect, common lambsquarter ([7]; 10 g./a.): 3; Herbicidal effect, common lambsquarter ([7]; 20 g./a.): 4; Herbicidal effect, common lambsquarter ([7]; 40 g./a.): 5"
